Assay results reported in PMC3685872 (Bioorganic & medicinal chemistry, 2013).

Columns and labels:
[1] = system: Jurkat T cell acute lymphoblastic leukemia cell line; experiment: Anti-leukemia AlamarBlue assay in Jurkat cells; assay type: cell-based, human; conditions: for loss in anti-leukemic potency compared to dimer 838 / loss in anti-leukemic potency compared to oxygenated counterpart: Jurkat cells; for loss in anti-leukemic potency compared to dimer 838: relative to 838; for loss in anti-leukemic potency compared to oxygenated counterpart: phosphoryl oxygen replaced with sulfur
[2] = system: prostate cancer LNCaP cells; conditions: compared with standard drug doxorubicin; ref [12]; cited from earlier work
CMV = conditions: cited from earlier work
[3] = system: PHA-stimulated peripheral blood mononuclear cells (PBMCs); experiment: Toxicity to nonmalignant PHA-stimulated PBMCs; assay type: cell-based; conditions: Homo sapiens, PBMC, 48 h, read-out: PHA-stimulated PBMC IC50

C[C@H]1[C@@H](CC(COP(=O)(OC2CCCCC2)OC2CCCCC2)C[C@H]2O[C@@H]3O[C@@]4(C)CC[C@H]5[C@H](C)CC[C@@H]([C@H]2C)[C@@]35OO4)O[C@@H]2O[C@@]3(C)CC[C@H]4[C@H](C)CC[C@@H]1[C@@]24OO3 (stereo partly drawn) [compound 851, dimer dicyclohexylphosphate ester]
loss in anti-leukemic potency compared to dimer 838 [1]: about half as efficacious

C[C@H]1[C@@H](CC(COP2(=O)Oc3ccccc3-c3ccccc3O2)C[C@H]2O[C@@H]3O[C@@]4(C)CC[C@H]5[C@H](C)CC[C@@H]([C@H]2C)[C@@]35OO4)O[C@@H]2O[C@@]3(C)CC[C@H]4[C@H](C)CC[C@@H]1[C@@]24OO3 (stereo partly drawn) [compound 836, dimer biphenylphosphate ester]
loss in anti-leukemic potency compared to dimer 838 [1]: about half as efficacious

C[C@H]1[C@@H](CC(COP(=O)(Oc2ccccc2)Oc2ccccc2)C[C@H]2O[C@@H]3O[C@@]4(C)CC[C@H]5[C@H](C)CC[C@@H]([C@H]2C)[C@@]35OO4)O[C@@H]2O[C@@]3(C)CC[C@H]4[C@H](C)CC[C@@H]1[C@@]24OO3 (stereo partly drawn) [compound 838, trioxane dimer diphenyl phosphate ester]
potency at inhibiting growth of LNCaP cells [2]: more potent than the standard drug doxorubicin
selectivity index (anti-CMV/cytotoxicity) (CMV; ref [10]): approximately 1500

CO[C@H]1O[C@@H]2O[C@@]3(C)CC[C@H]4[C@H](C)CC[C@@H]([C@H]1C)[C@@]24OO3 [Artemether, artemether, reference compound]
Anti-leukemia IC50 ([1]; Jurkat T-ALL cells, 48 hours of drug treatment, AlamarBlue, average of triplicate experiments): essentially inactive
activity against CMV (CMV; as previously determined, ref [9]): weak activity

C[C@H]1[C@@H](CC(COP(=S)(Oc2ccccc2)Oc2ccccc2)C[C@H]2O[C@@H]3O[C@@]4(C)CC[C@H]5[C@H](C)CC[C@@H]([C@H]2C)[C@@]35OO4)O[C@@H]2O[C@@]3(C)CC[C@H]4[C@H](C)CC[C@@H]1[C@@]24OO3 (stereo partly drawn) [compound 855, dimer diphenylthiophosphate ester]
loss in anti-leukemic potency compared to oxygenated counterpart [1]: ~ 18 fold

CC(C)c1ccc(OP(=O)(OCC(C[C@H]2O[C@@H]3O[C@@]4(C)CC[C@H]5[C@H](C)CC[C@@H]([C@H]2C)[C@@]35OO4)C[C@H]2O[C@@H]3O[C@@]4(C)CC[C@H]5[C@H](C)CC[C@@H]([C@H]2C)[C@@]35OO4)Oc2ccc(C(C)C)cc2)cc1 [compound 923, dimer bis-(4-isopropylphenyl)phosphate ester]
loss in anti-leukemic potency compared to dimer 838 [1]: 5 fold

C[C@H]1[C@@H](CC(COP2(=S)Oc3ccccc3-c3ccccc3O2)C[C@H]2O[C@@H]3O[C@@]4(C)CC[C@H]5[C@H](C)CC[C@@H]([C@H]2C)[C@@]35OO4)O[C@@H]2O[C@@]3(C)CC[C@H]4[C@H](C)CC[C@@H]1[C@@]24OO3 (stereo partly drawn) [compound 853, dimer biphenylthiophosphate ester]
loss in anti-leukemic potency compared to oxygenated counterpart [1]: ~ 9 fold

Cc1cccc(C)c1OP(=O)(OCC(C[C@H]1O[C@@H]2O[C@@]3(C)CC[C@H]4[C@H](C)CC[C@@H]([C@H]1C)[C@@]24OO3)C[C@H]1O[C@@H]2O[C@@]3(C)CC[C@H]4[C@H](C)CC[C@@H]([C@H]1C)[C@@]24OO3)Oc1c(C)cccc1C [compound 895, dimer bis-(2,6-dimethylphenyl)phosphate ester]
loss in anti-leukemic potency compared to dimer 838 [1]: comparable potency

C[C@H]1[C@@H](CC(COP(=O)(O)Oc2ccccc2)C[C@H]2O[C@@H]3O[C@@]4(C)CC[C@H]5[C@H](C)CC[C@@H]([C@H]2C)[C@@]35OO4)O[C@@H]2O[C@@]3(C)CC[C@H]4[C@H](C)CC[C@@H]1[C@@]24OO3 (stereo partly drawn) [compound 762, monophenylphosphate ester]
loss in anti-leukemic potency compared to dimer 838 [1]: 70 fold
IC50 [3]: ~40 µM
